{"source": "patent US20070259908A1", "about": "“Mitochondria Activators” (KANEKA CORPORATION, priority 2004, published 2007)", "key": {"[1]": {"tested_on": "tissue of the pancreatic islets of Langerhans", "experiment": "Insulin secretion from cultured tissue of the pancreatic islets of Langerhans (ELISA), as index of mitochondria-activating activity / ATP production", "assay_type": "cell-based, rat", "settings": "for insulin concentration (secretion amount of insulin from tissue of the islets of Langerhans) / insulin concentration, value in parentheses (control = 100): 0.1 μg/ml of each test substance in medium, culture for 1 hr; for insulin concentration (secretion amount of insulin from tissue of the islets of Langerhans): ELISA, control 43 ± 8; for insulin concentration, value in parentheses (control = 100): relative to control (100); for increase of the concentration of insulin in the medium: addition amount of 0.1 μg/ml, versus control", "from_the_text": "Therefore, a tissue of the pancreatic islets of Langerhans, which reacts with ATP to secrete insulin, was used to evaluate the mitochondria-activating activity of a test substance, with the insulin secretion as an index. As the tissue of the pancreatic islets of Langerhans, a culture kit (manufactured by Hokudo Co., Ltd) prepared from a rat was used. […] In the same manner as in Example 1, a tissue of the pancreatic islets of Langerhans was used to evaluate the mitochondria-activating activity of a test substance, with the insulin secretion as an index. As the tissue of the pancreatic islets of Langerhans, a culture kit (manufactured by Hokudo Co., Ltd) prepared from a rat was used."}, "rats": {"tested_on": "rats", "settings": "consecutive administration of 1200 mg/Kg/day for 52 weeks; cited from earlier work"}, "kidney": {"tested_on": "kidney", "settings": "reported in patent reference 5; narrow safety margin; cited from earlier work"}}}
{"smiles": "O=C(O)CC(O)(CC(=O)O)C(=O)O", "note": "[citric acid]", "values": [{"measurement": "insulin concentration (secretion amount of insulin from tissue of the islets of Langerhans)", "setting": "[1]", "result": "2030 ± 391", "unit": "ng/mL"}, {"measurement": "insulin concentration, value in parentheses (control = 100)", "setting": "[1]", "result": 4720}, {"measurement": "increase of the concentration of insulin in the medium", "setting": "[1]", "result": 47, "unit": "fold"}]}
{"smiles": "COC1=C(OC)C(=O)C(C/C=C(\\C)CC/C=C(\\C)CC/C=C(\\C)CC/C=C(\\C)CC/C=C(\\C)CC/C=C(\\C)CC/C=C(\\C)CC/C=C(\\C)CC/C=C(\\C)CCC=C(C)C)=C(C)C1=O", "note": "[coenzyme Q10]", "values": [{"measurement": "toxic effect in chronic toxicity test", "setting": "rats", "result": "absence of toxic effect"}]}
{"smiles": "COC1=C(OC)C(=O)C(C/C=C(\\C)CC/C=C(\\C)CC/C=C(\\C)CC/C=C(\\C)CC/C=C(\\C)CC/C=C(\\C)CC/C=C(\\C)CC/C=C(\\C)CC/C=C(\\C)CCC=C(C)C)=C(C)C1=O", "note": "[oxidized coenzyme Q10, reference compound]", "values": [{"measurement": "insulin concentration (secretion amount of insulin from tissue of the islets of Langerhans)", "setting": "[1]", "result": "329 ± 85", "unit": "ng/mL"}, {"measurement": "insulin concentration, value in parentheses (control = 100)", "setting": "[1]", "result": 765}, {"measurement": "increase of the concentration of insulin in the medium", "setting": "[1]", "result": 7.7, "unit": "fold"}]}
{"smiles": "O=C(O)c1cc(C(=O)O)c2c(n1)C(=O)C(=O)c1cc(C(=O)O)[nH]c1-2", "note": "[pyrroloquinoline quinone, 2,7,9-tricarboxy-1H-pyrrolo[2,3-f]quinoline-4,5-dione]", "values": [{"measurement": "toxicity to kidney", "setting": "kidney", "result": "strong toxicity to kidney"}, {"measurement": "insulin concentration (secretion amount of insulin from tissue of the islets of Langerhans)", "setting": "[1]", "result": "220 ± 56", "unit": "ng/mL"}, {"measurement": "insulin concentration, value in parentheses (control = 100)", "setting": "[1]", "result": 511}, {"measurement": "increase of the concentration of insulin in the medium", "setting": "[1]", "result": 5.1, "unit": "fold"}]}
{"smiles": "COc1c(O)c(C)c(C/C=C(\\C)CC/C=C(\\C)CC/C=C(\\C)CC/C=C(\\C)CC/C=C(\\C)CC/C=C(\\C)CC/C=C(\\C)CC/C=C(\\C)CC/C=C(\\C)CCC=C(C)C)c(O)c1OC", "note": "[reduced coenzyme Q10]", "values": [{"measurement": "insulin concentration (secretion amount of insulin from tissue of the islets of Langerhans)", "setting": "[1]", "result": "360 ± 78", "unit": "ng/mL"}, {"measurement": "insulin concentration, value in parentheses (control = 100)", "setting": "[1]", "result": 837}, {"measurement": "increase of the concentration of insulin in the medium", "setting": "[1]", "result": 8.3, "unit": "fold"}]}
